Assay results reported in patent publication USRE50528E1, “Compounds and compositions for modulating EGFR mutant kinase activities” (Yuhan Corporation, priority 2014, dated 2025).
Like-named read-outs stand apart in the source and are kept apart here.

Columns and labels:
EGFR mutant L858R/T790M = biological target: T1, EGFR mutant L858R/T790M (Homo sapiens, UniProt P00533, L858R/T790M); test: Kinase inhibition assay, EGFR L858R/T790M; assay type: biochemical; conditions: read-out: EGFR mutants L858R/T790M;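 note: truncated human enzyme preincubated two hours with compound, then one hour with one millimolar ATP and ULight-PolyGT peptide, Europium-labeled antibody detection, IC50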
T1 construct: truncated human JAK3, EGFR mutants such as del E746-A750; purchased Carna Biosciences

[1] = biological target: T2, EGFR mutant Del19 (E746-A750) (Homo sapiens, UniProt P00533, DEL746-750); test: Kinase inhibition assay, EGFR del E746-A750; assay type: biochemical; conditions: read-out: EGFR mutants Del19 (E746-A750);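 note: truncated human EGFR mutant kinase, two-hour preincubation with compound, then one-hour reaction with ATP and ULight-PolyGT peptide, LANCE Europium-antibody phosphorylation readout, IC50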
T2 construct: truncated human JAK3, EGFR mutants such as del E746-A750; purchased Carna Biosciences

SYK = biological target: T3, SYK (Homo sapiens, UniProt P43405); test: Kinase inhibition assay, SYK; assay type: biochemical; conditions: biochemical potency;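 note: purified full-length human SYK pre-incubated 30 min with compound, then ULight-TK peptide phosphorylation for 1 h, detected with Europium-labeled antibody in Lance buffer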
T3 construct: Purified human, full-length SYK, KDR; purchased Carna Biosciences

EGFR mutant T790M = biological target: T4, EGFR mutant T790M (Homo sapiens, UniProt P00533, T790M); test: Kinase inhibition assay, EGFR mutant T790M; conditions: biochemical potency;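 note: truncated human EGFR mutant enzyme preincubated two hours with compound, then ATP plus ULight-PolyGT peptide for one hour, Europium-labeled antibody LANCE detection, IC50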
T4 construct: truncated human JAK3, EGFR mutants such as del E746-A750; purchased Carna Biosciences

EGFR mutant L858R = biological target: T5, EGFR mutant L858R (Homo sapiens, UniProt P00533, L858R); test: Kinase inhibition assay, EGFR L858R; assay type: biochemical; conditions: read-out: EGFR mutants L858R;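 note: truncated human EGFR L858R kinase with compound preincubation, ULight-PolyGT peptide phosphorylation read by Europium-antibody Lance detection, IC50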
T5 construct: truncated human JAK3, EGFR mutants such as del E746-A750; purchased Carna Biosciences

| Compound | IC50 (EGFR mutant L858R/T790M) | IC50 [1] | IC50 (SYK) | IC50 (EGFR mutant T790M) | IC50 (EGFR mutant L858R) | IC50 (EGFR mutant L858R/T790M; biochemical potency, 1 mM ATP) | IC50 (EGFR mutant L858R; biochemical potency, 1 mM ATP) |
| --- | --- | --- | --- | --- | --- | --- | --- |
| C=CC(=O)Nc1cc(Nc2ncc(F)c(-n3cc(C)c(CN(C)C)c3)n2)c(OC)cc1N(C)C [Compound 143, N-(2-(dimethylamino)-5-(4-(3-((dimethylamino)methyl)-4-methyl-1H-pyrrol-1-yl)-5-fluoropyrimidin-2-ylamino)-4-methoxyphenyl)acrylamide] | – | – | 201 to 1000 nM | < 20 nM | – | – | – |
| C=CC(=O)Nc1ccc(OC)c(Nc2ncc(C)c(-n3cc(CN4CC(O)C4)cn3)n2)c1 [Compound 11, N-(3-(4-(4-((3-hydroxyazetidin-1-yl)methyl)-1H-pyrazol-1-yl)-5-methylpyrimidin-2-ylamino)-4-methoxyphenyl)acrylamide] | – | – | 20 to 200 nM | < 20 nM | – | – | – |
| N-(5-(4-(4-(azetidin-1-ylmethyl)-3-methyl-1H-pyrazol-1-yl)pyrimidin-2-ylamino)-4-methoxy-2-(1H-pyrazol-1-yl)phenyl)acrylamide [Compound 53] | – | – | > 1000 nM | 20 to 200 nM | – | 20 to 200 nM | 20 to 200 nM |
| C=CC(=O)Nc1ccc(OC)c(Nc2nccc(-n3ccc(C)n3)n2)c1 [Compound 9, N-(4-methoxy-3-(4-(3-methyl-1H-pyrazol-1-yl)pyrimidin-2-ylamino)phenyl)acrylamide] | – | – | > 1000 nM | 20 to 200 nM | – | – | – |
| C=CC(=O)Nc1cc(Nc2ncc(C)c(-n3cc(CN4CC(O)C4)c(C)n3)n2)c(OC)cc1N1CCOCC1 [Compound 24, N-(5-(4-(4-((3-hydroxyazetidin-1-yl)methyl)-3-methyl-1H-pyrazol-1-yl)-5-methylpyrimidin-2-ylamino)-4-methoxy-2-morpholinophenyl)acrylamide] | – | – | 201 to 1000 nM | < 20 nM | – | – | – |
| N-(2-((2-(dimethylamino)ethyl)(methyl)amino)-5-(4-(3-((dimethylamino)methyl)-4-(trifluoromethyl)-1H-pyrrol-1-yl)-5-fluoropyrimidin-2-ylamino)-4-methoxyphenyl)acrylamide [Compound 144] | – | – | – | < 20 nM | – | – | – |
| C=CC(=O)Nc1cc(Nc2ncc(C)c(-n3cc(CN4CCC4)cn3)n2)c(OC(C)C)cc1N1CCOCC1 [Compound 63, N-(5-(4-(4-(azetidin-1-ylmethyl)-1H-pyrazol-1-yl)-5-methylpyrimidin-2-ylamino)-4-isopropoxy-2-morpholinophenyl)acrylamide] | 20 to 200 nM | 20 to 200 nM | > 1000 nM | 20 to 200 nM | 201 to 1000 nM | – | – |
| C=CC(=O)Nc1cc(Nc2nccc(-n3cc(CN4CC(O)C4)c(C)n3)n2)c(OC)cc1-c1cnn(C)c1 [Compound 58, N-(5-(4-(4-((3-hydroxyazetidin-1-yl)methyl)-3-methyl-1H-pyrazol-1-yl)pyrimidin-2-ylamino)-4-methoxy-2-(1-methyl-1H-pyrazol-4-yl)phenyl)acrylamide] | – | – | 201 to 1000 nM | 20 to 200 nM | – | – | – |
| C=CC(=O)Nc1cc(Nc2ncc(C)c(-n3cc(CN4C[C@@H](O)[C@@H](O)C4)cn3)n2)c(OC)cc1N1CCOCC1 [Compound 20, N-(5-(4-(4-(((3R,4S)-3,4-dihydroxypyrrolidin-1-yl)methyl)-1H-pyrazol-1-yl)-5-methylpyrimidin-2-ylamino)-4-methoxy-2-morpholinophenyl)acrylamide] | – | – | 201 to 1000 nM | < 20 nM | – | – | – |
| C=CC(=O)Nc1cc(Nc2ncc(C)c(-n3cc(CN4CC[C@@H](O)C4)c(C)n3)n2)c(OC)cc1N1CCOCC1 [Compound 27, (R)—N-(5-(4-(4-((3-hydroxypyrrolidin-1-yl)methyl)-3-methyl-1H-pyrazol-1-yl)-5-methylpyrimidin-2-ylamino)-4-methoxy-2-morpholinophenyl)acrylamide] | – | – | > 1000 nM | < 20 nM | – | – | – |

Now from value to compound, other results behind:

| IC50 (EGFR mutant L858R/T790M) | IC50 [1] | IC50 (SYK) | IC50 (EGFR mutant T790M) | IC50 (EGFR mutant L858R) | Compound | IC50 (EGFR mutant L858R/T790M; biochemical potency, 1 mM ATP) | IC50 (EGFR mutant L858R; biochemical potency, 1 mM ATP) |
| --- | --- | --- | --- | --- | --- | --- | --- |
| < 20 nM | < 20 nM | > 1000 nM | < 20 nM | < 20 nM | C=CC(=O)Nc1cc(Nc2nccc(-n3cc(CN4CCC4)c(C(C)(C)C)n3)n2)c(OC)cc1N(C)CCOC [Compound 101, N-(5-(4-(4-(azetidin-1-ylmethyl)-3-tert-butyl-1H-pyrazol-1-yl)pyrimidin-2-ylamino)-4-methoxy-2-((2-methoxyethyl)(methyl)amino)phenyl)acrylamide] | – | – |
| 20 to 200 nM | < 20 nM | – | 20 to 200 nM | 20 to 200 nM | C=CC(=O)Nc1cc(Nc2nccc(-n3cc(CN4CCC4)c(-c4ccccc4)n3)n2)c(OC)cc1N1CCCC1 [Compound 99, N-(5-(4-(4-(azetidin-1-ylmethyl)-3-phenyl-1H-pyrazol-1-yl)pyrimidin-2-ylamino)-4-methoxy-2-(pyrrolidin-1-yl)phenyl)acrylamide] | – | – |
| – | – | > 1000 nM | < 20 nM | – | C=CC(=O)Nc1cc(Nc2nccc(-n3cc(CN4CCC4)c(C)n3)n2)c(OC)cc1N1CCCCC1 [Compound 18, N-(5-(4-(4-(azetidin-1-ylmethyl)-3-methyl-1H-pyrazol-1-yl)pyrimidin-2-ylamino)-4-methoxy-2-(piperidin-1-yl)phenyl)acrylamide] | – | – |
| – | – | > 1000 nM | < 20 nM | – | C=CC(=O)Nc1cc(Nc2nccc(-n3cc(CN(C)C)c(C(C)C)n3)n2)c(OC)cc1N1CCCC1 [Compound 116, N-(5-(4-(4-((dimethylamino)methyl)-3-isopropyl-1H-pyrazol-1-yl)pyrimidin-2-ylamino)-4-methoxy-2-(pyrrolidin-1-yl)phenyl)acrylamide] | – | – |
| 20 to 200 nM | < 20 nM | – | 20 to 200 nM | 20 to 200 nM | C=CC(=O)Nc1cc(Nc2nccc(-n3cc(CN(C)C)c(-c4ccccc4)n3)n2)c(OC)cc1N1CCCC1 [Compound 98, N-(5-(4-(4-((dimethylamino)methyl)-3-phenyl-1H-pyrazol-1-yl)pyrimidin-2-ylamino)-4-methoxy-2-(pyrrolidin-1-yl)phenyl)acrylamide] | – | – |
| – | – | > 1000 nM | 20 to 200 nM | – | C=CC(=O)Nc1cc(Nc2nccc(-n3cc(CN4CCC4)c(C4CC4)n3)n2)c(OC)cc1N1CCCC1 [Compound 111, N-(5-(4-(4-(azetidin-1-ylmethyl)-3-cyclopropyl-1H-pyrazol-1-yl)pyrimidin-2-ylamino)-4-methoxy-2-(pyrrolidin-1-yl)phenyl)acrylamide] | – | – |
| < 20 nM | < 20 nM | > 1000 nM | 20 to 200 nM | 20 to 200 nM | C=CC(=O)Nc1cc(Nc2nccc(-n3cc(CO)c(C)n3)n2)c(OC)cc1N1CCOCC1 [Compound 66, N-(5-(4-(4-(hydroxymethyl)-3-methyl-1H-pyrazol-1-yl)pyrimidin-2-ylamino)-4-methoxy-2-morpholinophenyl)acrylamide] | – | – |
| – | – | > 1000 nM | < 20 nM | – | C=CC(=O)Nc1cc(Nc2nccc(-n3cc(CN(C)C)c(C(C)(C)C)n3)n2)c(OC)cc1N1CCCC1 [Compound 104, N-(5-(4-(3-tert-butyl-4-((dimethylamino)methyl)-1H-pyrazol-1-yl)pyrimidin-2-ylamino)-4-methoxy-2-(pyrrolidin-1-yl)phenyl)acrylamide] | – | – |
| – | – | > 1000 nM | 20 to 200 nM | – | C=CC(=O)Nc1cc(Nc2nccc(-n3cc(CN4CCC4)c(C)n3)n2)c(OC)cc1N(C)CCN(C)C [Compound 16, N-(5-(4-(4-(azetidin-1-ylmethyl)-3-methyl-1H-pyrazol-1-yl)pyrimidin-2-ylamino)-2-((2-(dimethylamino)ethyl)(methyl)amino)-4-methoxyphenyl)acrylamide] | – | – |
| – | – | > 1000 nM | 20 to 200 nM | – | C=CC(=O)Nc1cc(Nc2nccc(-n3cc(CN4CCC4)c(C(C)(C)C)n3)n2)c(OC)cc1N1CCCC1 [Compound 105, N-(5-(4-(4-(azetidin-1-ylmethyl)-3-tert-butyl-1H-pyrazol-1-yl)pyrimidin-2-ylamino)-4-methoxy-2-(pyrrolidin-1-yl)phenyl)acrylamide] | – | – |
| – | – | – | 20 to 200 nM | – | C=CC(=O)Nc1cc(Nc2nccc(-n3cc(CN4CC(F)C4)c(C)n3)n2)c(OC)cc1N1CCOCC1 [Compound 72, N-(5-(4-(4-((3-fluoroazetidin-1-yl)methyl)-3-methyl-1H-pyrazol-1-yl)pyrimidin-2-ylamino)-4-methoxy-2-morpholinophenyl)acrylamide] | – | – |
| – | – | > 1000 nM | < 20 nM | – | C=CC(=O)Nc1cc(Nc2nccc(-n3cc(CN4CCC4)c(C(C)C)n3)n2)c(OC)cc1N1CCCC1 [Compound 117, N-(5-(4-(4-(azetidin-1-ylmethyl)-3-isopropyl-1H-pyrazol-1-yl)pyrimidin-2-ylamino)-4-methoxy-2-(pyrrolidin-1-yl)phenyl)acrylamide] | – | – |
| < 20 nM | < 20 nM | > 1000 nM | < 20 nM | < 20 nM | C=CC(=O)Nc1cc(Nc2nccc(-n3cc(CN(C)C)c(C(C)(C)C)n3)n2)c(OC)cc1N(C)C1COC1 [Compound 102, N-(5-(4-(3-tert-butyl-4-((dimethylamino)methyl)-1H-pyrazol-1-yl)pyrimidin-2-ylamino)-4-methoxy-2-(methyl(oxetan-3-yl)amino)phenyl)acrylamide] | – | – |
| < 20 nM | < 20 nM | – | < 20 nM | < 20 nM | C=CC(=O)Nc1cc(Nc2nccc(-n3cc(CN4CCC4)c(C(C)(C)C)n3)n2)c(OC)cc1N(C)C1COC1 [Compound 103, N-(5-(4-(4-(azetidin-1-ylmethyl)-3-tert-butyl-1H-pyrazol-1-yl)pyrimidin-2-ylamino)-4-methoxy-2-(methyl(oxetan-3-yl)amino)phenyl)acrylamide] | – | – |
